30 compounds from patent US11780839B2, “Compounds for treating Huntington's disease” (PTC THERAPEUTICS, INC., priority 2018, dated 2023) can be followed below.

The test system of the assay is Endogenous Huntingtin Protein. Description: Endogenous Huntingtin Protein Assay (ELISA-based Meso Scale Discovery electrochemiluminescence). Type of assay: cell-based. The conditions noted are these: MSD electrochemiluminescence, Table 1. Here is the method: Compounds of Formula (I) or Formula (II) were tested using the Meso Scale Discovery (MSD) Assay provided in International Application No. PCT/US2016/066042, filed on Dec. 11, 2016 and claiming priority to U.S. Provisional Application 62/265,652 filed on Dec. 10, 2015, the entire contents of which are incorporated herein by reference.
The Endogenous Huntingtin Protein assay used in Example 1 was developed using the ELISA-based MSD electrochemiluminescence assay platform.
Endogenous Huntingtin Protein Assay
Meso Scale Discovery (MSD) 96-well or 384-well plates were coated overnight at 4° C. with MW1 (expanded polyglutamine) or MAB2166 monoclonal antibody (for capture) at a concentration of 1 μg/mL in PBS (30 μL per well). Plates were then washed three times with 300 μL wash buffer (0.05% Tween-20 in PBS) and blocked (100 μL blocking buffer; 5% BSA in PBS) for 4-5 hours at room temperature with rotational shaking and then washed three times with wash buffer.
Samples (25 μL) were transferred to the antibody-coated MSD plate and incubated overnight at 4° C. After removal of the lysates, the plate was washed three times with wash buffer, and 25 μL of #5656S (Cell signaling; rabbit monoclonal) secondary antibody (diluted to 0.25 μg/mL in 0.05% Tween-20 in blocking buffer) was added to each well and incubated with shaking for 1 Hour at room temperature. Following incubation with the secondary antibody, the wells were rinsed with wash buffer after which 25 μL of goat anti-rabbit SULFO TAG secondary detection antibody (required aspect of the MSD system) (diluted to 0.25 μg/mL in 0.05% Tween-20 in blocking buffer) was added to each well and incubated with shaking for 1 hour at room temperature. After rinsing three times with wash buffer, 150 μL of read buffer T with surfactant (MSD) were added to each empty well, and the plate was imaged on a SI 6000 imager (MSD) according to manufacturers' instructions provided for 96- or 384-well plates.
As to `CC(C)(C)NC1CCN(c2ncc(-c3ccc(-c4c[nH]nc4F)cc3O)nn2)C1` (stereo not drawn) [Cpd 174, 2-{3-[3-(tert-butylamino)pyrrolidin-1-yl]-1,2,4-triazin-6-yl}-5-(3-fluoro-1H-pyrazol-4-yl)phenol], the concentration for half-maximal inhibition (IC50) was ≤ 100 nM.
In turn, `CC12CC3CC(C)(C1)CC(NC1CCN(c4ncc(-c5ccc(-c6cn[nH]c6)cc5O)nn4)C1)(C3)C2` (stereo not drawn) [Cpd 160, 2-(3-{3-[(3,5-dimethyladamantan-1-yl)amino]pyrrolidin-1-yl}-1,2,4-triazin-6-yl)-5-(1H-pyrazol-4-yl)phenol] gave a concentration for half-maximal inhibition (IC50) of 1000 to 3000 nM.
Compound `CN1CC[C@H]2CN(c3ncc(-c4ccc(-c5c[nH]nc5F)cc4O)nn3)CC[C@H]21` [Cpd 153, 5-(3-fluoro-1H-pyrazol-4-yl)-2-{3-[(3aS,7aR)-1-methyloctahydro-5H-pyrrolo[3,2-c]pyridin-5-yl]-1,2,4-triazin-6-yl}phenol] gave a half-maximal inhibitory concentration (IC50) of 100 to 500 nM.
Take `Cn1cc(-c2ccc(-c3cnc(N4CC[C@@H](NC5CCC5)C4)nn3)c(O)c2)cn1` [Cpd 406, 2-{3-[(3R)-3-(cyclobutylamino)pyrrolidin-1-yl]-1,2,4-triazin-6-yl}-5-(1-methyl-1H-pyrazol-4-yl)phenol]: the IC50 was ≤ 100 nM.
Next, `Cc1cc(-c2ccc(-c3cnc(N(C)C4CC(C)(C)NC(C)(C)C4)nn3)c(O)c2)ccn1` [Cpd 9, 5-(2-methylpyridin-4-yl)-2-{3-[methyl(2,2,6,6-tetramethylpiperidin-4-yl)amino]-1,2,4-triazin-6-yl}phenol]: ≤ 100 nM; `Cc1cn2nc(-c3ccc(-c4cnc(N(C)C5CC(C)(C)NC(C)(C)C5)nn4)c(O)c3)ccc2n1` [Cpd 142, 5-(2-methylimidazo[1,2-b]pyridazin-6-yl)-2-{3-[methyl(2,2,6,6-tetramethylpiperidin-4-yl)amino]-1,2,4-triazin-6-yl}phenol]: ≤ 100 nM; `CN(c1ncc(-c2ccc(-c3cn(C)cn3)cc2O)nn1)C1CC(C)(C)NC(C)(C)C1` [Cpd 75, 5-(1-methyl-1H-imidazol-4-yl)-2-{3-[methyl(2,2,6,6-tetramethylpiperidin-4-yl)amino]-1,2,4-triazin-6-yl}phenol]: > 500 nM.
Regarding `CC(C)NC1CCN(c2ncc(-c3ccc(-c4cn[nH]c4F)cc3O)nn2)C1` (stereo not drawn) [Cpd 235, 5-(5-fluoro-1H-pyrazol-4-yl)-2-(3-{3-[(propan-2-yl)amino]pyrrolidin-1-yl}-1,2,4-triazin-6-yl)phenol], the half-inhibitory concentration (IC50) was ≤ 100 nM.
Next, `CNC1CCN(c2ncc(-c3ccc(-c4cnn(C)n4)cc3O)nn2)C1` (stereo not drawn) [Cpd 295, 2-{3-[3-(methylamino)pyrrolidin-1-yl]-1,2,4-triazin-6-yl}-5-(2-methyl-2H-1,2,3-triazol-4-yl)phenol]: ≤ 100 nM; `OCCNC1CCN(c2ncc(-c3ccc(-c4cn[nH]c4)cc3O)nn2)C1` (stereo not drawn) [Cpd 333, 2-(3-{3-[(2-hydroxyethyl)amino]pyrrolidin-1-yl}-1,2,4-triazin-6-yl)-5-(1H-pyrazol-4-yl)phenol]: ≤ 100 nM; `CNC1CCN(c2ncc(-c3ccc(-c4cc(SC)ncn4)cc3O)nn2)C1` (stereo not drawn) [Cpd 364, 2-{3-[3-(methylamino)pyrrolidin-l-yl]-1,2,4-triazin-6-yl}-5-[6-(methylsulfanyl)pyrimidin-4-yl]phenol]: 100 to 500 nM.
Turning to `CN(c1ncc(-c2ccc(-c3cccnn3)cc2O)nn1)C1CC(C)(C)NC(C)(C)C1` [Cpd 84, 2-{3-[methyl(2,2,6,6-tetramethylpiperidin-4-yl)amino]-1,2,4-triazin-6-yl}-5-(pyridazin-3-yl)phenol], the IC50 is ≤ 100 nM.
Under “5-(5-fluoro-1H-pyrazol-4-yl)-2-{6-[methyl(2,2,6,6-tetramethylpiperidin-4-yl)amino]-1,2,4-triazin-3-yl}phenol [Cpd 191]” stands ≤ 100 nM; under `Oc1cc(-c2cn[nH]c2)ccc1-c1cnc(N2CCC(CNC3CCCOC3)C2)nn1` (stereo not drawn) [Cpd 404, 2-[3-(3-{[(oxan-3-yl)amino]methyl}pyrrolidin-1-yl)-1,2,4-triazin-6-yl]-5-(1H-pyrazol-4-yl)phenol], ≤ 100 nM.
In turn, `CN(c1ncc(-c2ccc(-c3ccc4c(ncn4C)n3)cc2O)nn1)C1CC(C)(C)NC(C)(C)C1` [Cpd 164, 5-(1-methyl-1H-imidazo[4,5-b]pyridin-5-yl)-2-{3-[methyl(2,2,6,6-tetramethylpiperidin-4-yl)amino]-1,2,4-triazin-6-yl}phenol] displayed an IC50 of 100 to 500 nM.
For `CN(c1ncc(-c2ccc(-n3ncc(CO)n3)cc2O)nn1)C1CC(C)(C)NC(C)(C)C1` [Cpd 172, 5-[4-(hydroxymethyl)-2H-1,2,3-triazol-2-yl]-2-{3-[methyl(2,2,6,6-tetramethylpiperidin-4-yl)amino]-1,2,4-triazin-6-yl}phenol], the IC50 is ≤ 100 nM.
Take `CC1(C)CC(Nc2ncc(-c3ccc(-c4ccnnc4)cc3O)nn2)CC(C)(C)N1` [Cpd 314, 5-(pyridazin-4-yl)-2-{3-[(2,2,6,6-tetramethylpiperidin-4-yl)amino]-1,2,4-triazin-6-yl}phenol]: the IC50 was ≤ 100 nM.
For the compound `Oc1cc(-c2cn[nH]c2)ccc1-c1cnc(N2CCC(C3CCCN3)C2)nn1` (stereo not drawn) [Cpd 387, 2-[3-([2,3’-bipyrrolidin]-l’-yl)-1,2,4-triazin-6-yl]-5-(1H-pyrazol-4-yl)phenol], the half-inhibitory concentration (IC50) is ≤ 100 nM.
Next, `CC1(C)CC(Nc2ncc(-c3ccc(-c4cn5ccccc5n4)cc3O)nn2)CC(C)(C)N1` [Cpd 360, 5-(imidazo[1,2-a]pyridin-2-yl)-2-{3-[(2,2,6,6-tetramethylpiperidin-4-yl)amino]-1,2,4-triazin-6-yl}phenol]: 100 to 500 nM.
As to `Cn1ncc(-c2ccc(-c3cnc(NC4CC(C)(C)NC(C)(C)C4)nn3)c(O)c2)n1` [Cpd 266, 5-(2-methyl-2H-1,2,3-triazol-4-yl)-2-{3-[(2,2,6,6-tetramethylpiperidin-4-yl)amino]-1,2,4-triazin-6-yl}phenol], the IC50 was ≤ 100 nM.
The compound `CC(C)NC1CCN(c2ncc(-c3ccc(-c4ncns4)cc3O)nn2)C1` (stereo not drawn) [Cpd 237, 2-(3-{3-[(propan-2-yl)amino]pyrrolidin-1-yl}-1,2,4-triazin-6-yl)-5-(1,2,4-thiadiazol-5-yl)phenol] showed an IC50 of 100 to 500 nM.
For `Cn1ncc2cc(-c3ccc(-c4cnc(NC5CC(C)(C)NC(C)(C)C5)nn4)c(O)c3)ccc21` [Cpd 319, 5-(1-methyl-1H-indazol-5-yl)-2-{3-[(2,2,6,6-tetramethylpiperidin-4-yl)amino]-1,2,4-triazin-6-yl}phenol], the half-inhibitory concentration (IC50) was ≤ 100 nM.
`CC1(C)CC(Nc2ncc(-c3ccc(-c4cn5ccncc5n4)cc3O)nn2)CC(C)(C)N1` [Cpd 359, 5-(imidazo[1,2-a]pyrazin-2-yl)-2-{3-[(2,2,6,6-tetramethylpiperidin-4-yl)amino]-1,2,4-triazin-6-yl}phenol]: the half-inhibitory concentration (IC50) is ≤ 100 nM.
In the case of `CC(C)NC1CCN(c2ncc(-c3ccc(-c4ccn(C)c(=O)c4)cc3O)nn2)C1` (stereo not drawn) [Cpd 227, 4-[3-hydroxy-4-(3-{3-[(propan-2-yl)amino]pyrrolidin-1-yl}-1,2,4-triazin-6-yl)phenyl]-1-methylpyridin-2(1H)-one], the IC50 is ≤ 100 nM.
Next, `COc1cc(-c2ccc(-c3cnc(N(C)C4CC(C)(C)NC(C)(C)C4)nn3)c(O)c2)nn2ccnc12` [Cpd 304, 5-(8-methoxyimidazo[1,2-b]pyridazin-6-yl)-2-{3-[methyl(2,2,6,6-tetramethylpiperidin-4-yl)amino]-1,2,4-triazin-6-yl}phenol]: ≤ 100 nM; `CN(c1ncc(-c2ccc(-n3nccn3)cc2O)nn1)C1CC(C)(C)NC(C)(C)C1` [Cpd 63, 2-{3-[methyl(2,2,6,6-tetramethylpiperidin-4-yl)amino]-1,2,4-triazin-6-yl}-5-(2H-1,2,3-triazol-2-yl)phenol]: ≤ 100 nM.
Under `CN1CCC2(CC1)CN(c1ncc(-c3ccc(-c4ncco4)cc3O)nn1)C2` [Cpd 252, 2-[3-(7-methyl-2,7-diazaspiro[3.5]nonan-2-yl)-1,2,4-triazin-6-yl]-5-(1,3-oxazol-2-yl)phenol] stands > 500 nM.
`Cn1ncc2cc(-c3ccc(-c4cnc(N[C@H]5CC(C)(C)NC(C)(C)[C@H]5F)nn4)c(O)c3)ccc21` [Cpd 260, 2-(3-{[(3S,4S)-3-fluoro-2,2,6,6-tetramethylpiperidin-4-yl]amino}-1,2,4-triazin-6-yl)-5-(1-methyl-1H-indazol-5-yl)phenol]: the 50% inhibitory concentration (IC50) is ≤ 100 nM.
Under `CN(c1ncc(-c2ccc(-c3cnc4[nH]ccc4n3)cc2O)nn1)C1CC(C)(C)NC(C)(C)C1` [Cpd 158, 2-{3-[methyl(2,2,6,6-tetramethylpiperidin-4-yl)amino]-1,2,4-triazin-6-yl}-5-(5H-pyrrolo[2,3-b]pyrazin-2-yl)phenol] stands 1000 to 3000 nM; under `CC(C)(C)NC1CN(c2ncc(-c3ccc(-c4cn[nH]c4)cc3O)nn2)CC1F` (stereo not drawn) [Cpd 278, 2-{3-[3-(tert-butylamino)-4-fluoropyrrolidin-1-yl]-1,2,4-triazin-6-yl}-5-(1H-pyrazol-4-yl)phenol], ≤ 100 nM.
